Data on 19 molecules can be found in patent US10316017B2, “COT modulators and methods of use thereof” (Gilead Sciences, Inc., priority 2015, dated 2019).

The target in this assay is T1, human Cot catalytic domain (30-397 amino acids) (Homo sapiens, UniProt P41279).
T1 construct: Purified recombinant human Cot catalytic domain (30-397 amino acids) was purchased from Cama Biosciences; purchased Cama Biosciences (so in the source)
T1 sequence (P41279 30-397): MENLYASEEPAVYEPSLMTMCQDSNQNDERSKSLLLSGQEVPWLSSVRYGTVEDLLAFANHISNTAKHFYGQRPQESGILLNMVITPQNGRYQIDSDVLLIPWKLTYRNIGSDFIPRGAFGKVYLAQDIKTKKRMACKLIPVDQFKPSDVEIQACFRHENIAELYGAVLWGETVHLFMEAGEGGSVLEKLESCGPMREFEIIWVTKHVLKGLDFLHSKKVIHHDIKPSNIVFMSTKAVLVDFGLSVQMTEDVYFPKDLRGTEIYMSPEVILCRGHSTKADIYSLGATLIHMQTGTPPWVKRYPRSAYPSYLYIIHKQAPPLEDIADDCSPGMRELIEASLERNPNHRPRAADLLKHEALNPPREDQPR
The assay can be described thus: High Throughput Cot Biochemical Assay (KinEASE TR-FRET). As to conditions: Cot KinEASE TR-FRET, 400 μM ATP; read-out: IC50 HTRF. In short, it runs like this:
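TR-FRET readout: Eu-labeled phospho-specific antibody binds XL665-tagged STK3 peptide after phosphorylation by Cot (aa 30-397, 5 nM). Conditions: 400 μM ATP, 1 μM peptide, MOPS pH 7.0 buffer with MgOAc, DTT, BSA, NP-40, glycerol; 0.1% DMSO.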
For orientation: Time-resolved FRET reads energy transfer from a long-lived donor to a nearby acceptor.
The IC50 is the midpoint of a concentration-inhibition curve. Consider `CS(=O)(=O)N1CCC(n2cc(C(Nc3cc(Cl)c4ncc(C#N)c(Nc5ccc(F)c(Cl)c5)c4c3)c3ccc(F)cc3)nn2)CC1` (stereo not shown) [Example 845, 8-chloro-4-((3-chloro-4-fluorophenyl)amino)-6-(((4-fluorophenyl)(1-(1-(methylsulfonyl)piperidin-4-yl)-1H-1,2,3-triazol-4-yl)methyl)amino)quinoline-3-carbonitrile], for which the IC50 amounted to 0.099 µM.
The result for `CCN1CCC(n2cc([C@@H](Nc3cc(Cl)c4ncc(C#N)c(Nc5ccc(F)c(Cl)c5)c4c3)c3ccc4ccccc4c3)nn2)CC1` [Example 820, (S)-8-chloro-4-((3-chloro-4-fluorophenyl)amino)-6-(((1-(1-ethylpiperidin-4-yl)-1H-1,2,3-triazol-4-yl)(naphthalen-2-yl)methyl)amino)quinoline-3-carbonitrile] reads 0.023 µM; that for `N#Cc1cnc2c(Cl)cc(NC(c3cccc(F)c3)c3cn(C4CCNCC4)nn3)cc2c1Nc1ccc(F)c(Cl)c1` (stereo not shown) [Example 906, 8-chloro-4-((3-chloro-4-fluorophenyl)amino)-6-(((3-fluorophenyl)(1-(piperidin-4-yl)-1H-1,2,3-triazol-4-yl)methyl)amino)quinoline-3-carbonitrile], 0.008 µM; that for `CCN1CC[C@@H](n2cc(C(Nc3cc(Cl)c4ncc(C#N)c(Nc5ccc(F)c(Cl)c5)c4c3)c3ccc(F)cc3)nn2)C1` (stereo partly drawn) [Example 865, 8-chloro-4-((3-chloro-4-fluorophenyl)amino)-6-(((1-((R)-1-ethylpyrrolidin-3-yl)-1H-1,2,3-triazol-4-yl)(4-fluorophenyl)methyl)amino) quinoline-3-carbonitrile], 0.046 µM.
In the case of `N#Cc1cnc2c(Cl)cc(NC(c3ccc(F)cc3)c3ncco3)cc2c1Nc1ccc(F)c(Cl)c1` (stereo not shown) [Example 783, 8-chloro-4-((3-chloro-4-fluorophenyl)amino)-6-(((4-fluorophenyl)(oxazol-2-yl)methyl)amino)quinoline-3-carbonitrile], the IC50 was 0.291 µM.
With `COc1cccc(C(Nc2cc(Cl)c3ncc(C#N)c(Nc4ccc(F)c(Cl)c4)c3c2)c2cn(C3CCN(C(=O)OCc4ccccc4)CC3)nn2)c1` (stereo not shown) [Example 902, benzyl 4-(4-(((8-chloro-4-((3-chloro-4-fluorophenyl)amino)-3-cyanoquinolin-6-yl)amino)(3-methoxyphenyl)methyl)-1H-1,2,3-triazol-1-yl)piperidine-1-carboxylate] the figure was > 1 µM.
The result for `N#Cc1cnc2c(Cl)cc(NC(c3ccc(F)cc3)c3cn(C[C@H]4CCCN4)nn3)cc2c1Nc1ccc(F)c(Cl)c1` (stereo partly drawn) [Example 817, 8-chloro-4-((3-chloro-4-fluorophenyl)amino)-6-(((4-fluorophenyl)(1-(((R)-pyrrolidin-2-yl)methyl)-1H-1,2,3-triazol-4-yl)methyl)amino)quinoline-3-carbonitrile] reads 0.007 µM; that for `N#Cc1cnc2c(Cl)cc(NC(c3ccc(Cl)cc3)c3cn([C@H]4CCNC4)nn3)cc2c1Nc1ccc(F)c(Cl)c1` (stereo partly drawn) [Example 880, 8-chloro-4-((3-chloro-4-fluorophenyl)amino)-6-(((4-chlorophenyl)(1-((S)-pyrrolidin-3-yl)-1H-1,2,3-triazol-4-yl)methyl)amino)quinoline-3-carbonitrile], 0.068 µM.
The result for `N#Cc1cnc2c(Cl)cc(NC(c3ccccc3)c3cn(C4CCNCC4)nn3)cc2c1Nc1ccc(F)c(Cl)c1` (stereo not shown) [Example 921, 8-chloro-4-((3-chloro-4-fluorophenyl)amino)-6-((phenyl (1-(piperidin-4-yl)-1H-1,2,3-triazol-4-yl)methyl)amino)quinoline-3-carbonitrile] reads 0.008 µM.
With `N#Cc1cnc2c(Cl)cc(N[C@@H](c3ccc(F)cc3)c3cn(C4CCN(C5CC5)CC4)nn3)cc2c1Nc1ccc(F)c(Cl)c1` [Example 821, (S)-8-chloro-4-((3-chloro-4-fluorophenyl)amino)-6-(((1-(1-cyclopropylpiperidin-4-yl)-1H-1,2,3-triazol-4-yl)(4-fluorophenyl)methyl)amino) quinoline-3-carbonitrile], the IC50 turned out to be 0.021 µM.
The result for `N#Cc1cnc2c(Cl)cc(NC(c3ccc(F)cc3)c3ccno3)cc2c1Nc1ccc(F)c(Cl)c1` (stereo not shown) [Example 717, 8-chloro-4-((3-chloro-4-fluorophenyl)amino)-6-(((4-fluorophenyl)(isoxazol-5-yl)methyl)amino)quinoline-3-carbonitrile] reads 1.58 µM.
The result for `N#Cc1cnc2c(Cl)cc(NC(c3ccccc3)c3c[nH]nn3)cc2c1Nc1ccc(F)c(Cl)c1` (stereo not shown) [Example 888, 8-chloro-4-((3-chloro-4-fluorophenyl)amino)-6-((phenyl(1H-1,2,3-triazol-4-yl)methyl)amino)quinoline-3-carbonitrile] reads 0.05 µM; that for `N#Cc1cnc2c(Cl)cc(NC(c3ccc(F)cc3)c3c[nH]nn3)cc2c1Nc1ccc(F)c(Cl)c1` (stereo not shown) [Example 893, 8-chloro-4-((3-chloro-4-fluorophenyl)amino)-6-(((4-fluorophenyl)(1H-1,2,3-triazol-4-yl)methyl)amino)quinoline-3-carbonitrile], 0.039 µM.
On to `CN(C)Cc1ccc([C@H](Nc2cc(Cl)c3ncc(C#N)c(Nc4ccc(F)c(Cl)c4)c3c2)c2cn(C3CCN(C(C)(C)C)CC3)nn2)cc1` [Example 735, (S)-6-(((1-(1-(tert-butyl)piperidin-4-yl)-1H-1,2,3-triazol-4-yl)(4-((dimethylamino)methyl)phenyl)methyl)amino)-8-chloro-4-((3-chloro-4-fluorophenyl)amino)quinoline-3-carbonitrile], for which the IC50 was found to be 0.105 µM.
On to `Cn1cc(C(Nc2cc(Cl)c3ncc(C#N)c(Nc4ccc(F)c(Cl)c4)c3c2)c2cccc(CN3CCCC3)c2)nn1` (stereo not shown) [Example 852, 8-chloro-4-((3-chloro-4-fluorophenyl)amino)-6-(((1-methyl-1H-1,2,3-triazol-4-yl)(3-(pyrrolidin-1-ylmethyl)phenyl)methyl)amino)quinoline-3-carbonitrile], for which the IC50 came to 0.022 µM.
In the case of `CCN1CCC(n2cc(C(Nc3cc(Cl)c4ncc(C#N)c(Nc5ccc(F)c(Cl)c5)c4c3)c3ccc(Cl)cc3)nn2)CC1` (stereo not shown) [Compound 6], the IC50 came out at 0.013 µM.
Consider `COc1cc(Nc2c(C#N)cnc3c(Cl)cc(N[C@@H](c4ccc(Cl)cc4)c4cn(C5CCN(C(C)(C)C)CC5)nn4)cc23)c(Cl)cc1Cl` [Example 751, (S)-6-(((1-(1-(tert-butyl)piperidin-4-yl)-1H-1,2,3-triazol-4-yl)(4-chlorophenyl)methyl)amino)-8-chloro-4-((2,4-dichloro-5-methoxyphenyl)amino)quinoline-3-carbonitrile], for which the IC50 is > 10 µM.
`N#Cc1cnc2c(Cl)cc(N[C@@H](c3ccc(F)cc3)c3cn(C4CCNCC4)nn3)cc2c1Nc1ccc(F)c(Cl)c1` [Example 851, (S)-8-chloro-4-((3-chloro-4-fluorophenyl)amino)-6-(((4-fluorophenyl)(1-(piperidin-4-yl)-1H-1,2,3-triazol-4-yl)methyl)amino)quinoline-3-carbonitrile]: the IC50 worked out at 0.007 µM.
`CC(C)(C)N1CCC(n2cc([C@@H](Nc3cc(Cl)c4ncc(C#N)c(Nc5ccc(F)c(F)c5)c4c3)c3ccc(Cl)cc3)nn2)CC1` [Example 732, (S)-6-(((1-(1-(tert-butyl)piperidin-4-yl)-1H-1,2,3-triazol-4-yl)(4-chlorophenyl)methyl)amino)-8-chloro-4-((3,4-difluorophenyl)amino)quinoline-3-carbonitrile]: the IC50 was determined as 0.03 µM.
